Values of other authors in patent publication US5811400A, “Peptide derivatives with δ opioid receptor antagonist or mixed μ agδ antagonist effects” (Astra AB, priority 1994, dated 1998).

System: μ opioid receptors
Conditions: GPI assay

Oc1ccc2c3c1O[C@H]1c4[nH]c5ccccc5c4C[C@@]4(O)[C@@H](C2)N(CC2CC2)CC[C@]314 [naltrindole]
μ antagonist properties (Ke): 29 nM
